Measurements published in US8466172B2, “Stabilization of hypoxia inducible factor (HIF) alpha” (FibroGen, Inc., priority 2001, dated 2013).

What was measured:
aldolase = conditions: 293A cells
Description: Alternatively, human cells derived from adenovirus-transformed fetal kidney epithelium (293A) were cultured in DMEM, 5% FBS, 1% Penicillin-Streptomycin at 37° C. and 10% CO2. […] Culture supernatant was then removed, the plates were placed on ice, lysis buffer (LB)-1 was added and the cells were harvested by scraping. The scraped cells were collected and incubated for 15 minutes on ice followed by centrifugation at 3000 g for 5 minutes at 4° C. The supernatant, which represents the cytosolic fraction, was collected and cytosolic proteins were separated under denaturing and reducing conditions using SDS polyacrylamide gels that were loaded with equal amounts of protein per lane.
Gel electrophoresis was conducted at 150 V for 2 hours, and after SDS-PAGE the proteins were transferred to a PVDF membrane for 1.5 hours at 400 mA at 4° C. The membrane was then incubated in blocking buffer, washed once with T-TBS, and then anti-aldolase antibody diluted to working concentration in blocking buffer was added and the blots were incubated over night with gentle agitation at 4° C. The membrane was then washed 4 times with T-TBS, followed by incubation for one hour at room temperature with blocking buffer containing labeled secondary antibody. The membrane was then washed four times with T-TBS. […]

[1] = test system: vascular endothelial growth factor (VEGF); test: VEGF expression in conditioned media, QUANTIKINE immunoassay; format: cell-based, human; conditions: HFF, 293A and Hep3B cells
Description: When cell layers reached confluence, the media was replaced with OPTI-MEM media (Invitrogen Life Technologies, Carlsbad Calif.) and cell layers were incubated for approximately 24 hours in 20% O2, 5% CO2 at 37° C. Compound of the invention (one of compounds A to O) or DMSO (0.5 to 1%) was then added to existing medium, and incubation was continued overnight.
Conditioned media collected from cell cultures grown as in Example 1 was analyzed for vascular endothelial growth factor (VEGF) expression using a QUANTIKINE immunoassay (R&D Systems) according to the manufacturer's instructions. […] Values on the y-axis represent fold-induction relative to control and are reported on a log2 scale, such that a value of 1 represents 2-fold induction.

[2] = test system: vascular endothelial growth factor (VEGF) gene expression; test: VEGF gene expression in liver and kidney, quantitative PCR; format: in vivo; conditions: mouse, 200 mg/kg/day oral gavage, 2.5 days, four hours after final dose
Description: Four hours after the final dose, animals were anesthetized with isoflurane and a blood sample was collected from the abdominal vein. […] The mice were then sacrificed and approximately 150 mg of liver and each kidney were isolated and stored in [sequence] solution (Ambion) at −20° C.
RNA isolation was carried out using the following protocol. Tissue slices were cut into small pieces, 1.75 ml of RLT lysis buffer (RNEASY kit; Qiagen) was added, and the pieces were homogenized for about 20 seconds using a rotor-stator POLYTRON homogenizer (Kinematica, Inc., Cincinnati Ohio). […] The RNA was eluted into 80 μL of water and quantitated with RIBOGREEN reagent (Molecular Probes, Eugene Oreg.). […] The absorbance at 260 and 280 nm was measured to determine RNA purity and concentration.
cDNA synthesis was performed using 1W random hexamer primers, 1 μg of total RNA, and OMNISCRIPT reverse transcriptase (Qiagen), according to the manufacturer's instructions. […] Analysis of the relative level of vascular endothelial growth factor (VEGF) gene expression was performed by quantitative PCR using a [sequence] […]
The relative level of 18S ribosomal RNA gene expression was measured as a control. Quantitative PCR was performed using a [sequence] […]

[3] = test system: Wistar rats, myocardial infarction; conditions: one week after surgery
Description: Male Wistar rats (100-110 g), aged 4-5 weeks, were kept on a regular diet and a 12 hour day-night cycle. […] Animals were treated for two days prior to surgery and for one week following surgery. […] Ligation of the left anterior descending coronary artery was performed in artificially ventilated animals after left thoracotomy. Animals were sacrificed one week after surgery and echocardiography was performed. Fractional shortening, end-diastolic diameters, and end-systolic diameters were determined in a blinded fashion.

[4] = test system: Wistar rats, toxic-ischemic liver injury; test: Toxic-ischemic liver injury (CCl4); format: in vivo, rat; conditions: 9 weeks
Description: The model of toxic-ischemic liver injury was described in Bickel et al. (supra). Briefly, male Wistar rats (212-320 g) either received 1 ml/kg carbon tetrachloride (CCl4) in olive oil (1:1) by gavage twice weekly for nine weeks (n=140) or received no treatment (controls; n=10). Additionally, a group of animals receiving CCl4 (n=60) also received compound P. The compound was administered by intraperitoneal injection twice daily at 60 mg compound/2 ml saline/kg body weight. After 9 weeks, the animals were sacrificed and the liver was weighed. Bilirubin, alanine transaminase, alkaline phosphatase, albumin, and total bile acids in serum were determined using commercially available kits.

[5] = test system: Wistar rats, toxic-ischemic liver injury; conditions: CCl4 + CPD, 9 weeks, 60 mg/kg intraperitoneal twice daily; cited from earlier work

With `O=C(O)CNC(=O)c1nc(Cl)c2ccccc2c1O` [Compound B, N-((1-chloro-4-hydroxy-isoquinoline-3-carbonyl)-amino)-acetic acid] the “expression of aldolase over time (FIG. 4B)” value (aldolase) was “increased expression of aldolase”, the “VEGF expression in conditioned media (FIG. 4A)” value (“VEGF expression … (FIG. 4A)” for short) [1] was “increase in VEGF expression” and the “VEGF expression in kidney (FIG. 6A)” value [2] was “increased VEGF expression”. The “increase in end-diastolic diameter over sham operated animals” value [3] was 18%, the “increase in left ventricular end-systolic diameter over sham operated animals” value [3] was “no increase” and the “fractional shortening (FIG. 12A)” value ([3]; 50 mg/kg oral gavage two times per day from two days prior to surgery) was 41%.
In the case of `COc1ccc(CCN(CCC(=O)NO)S(=O)(=O)c2ccc(NC(=O)N(Cc3ccccc3)Cc3ccccc3)cc2)cc1` [Compound C, 3-{[4-(3,3-dibenzyl-ureido)-benzenesulfonyl]-[2-(4-methoxy-phenyl)-ethyl]-amino}-N-hydroxy-propionamide], the “VEGF expression … (FIG. 4A)” value [1] was “increase in VEGF expression”.
With `O=[N+]([O-])c1ccnc2c(O)cccc12` [Compound E, 4-nitro-quinolin-8-ol] the “VEGF expression in kidney (FIG. 6A)” value [2] was “increased VEGF expression”.
In the case of `CC(C)Oc1ccc2nc(C(=O)NCC(=O)O)c(O)cc2c1` [Compound H, N-((3-hydroxy-6-isopropoxy-quinoline-2-carbonyl)-amino)-acetic acid], the “VEGF expression … (FIG. 4A)” value [1] was “increase in VEGF expression”.
With `COC(=O)CNC(=O)c1nc(Cl)c2cc(OCc3ccccc3)ccc2c1O` [Compound K, ((7-benzyloxy-1-chloro-4-hydroxy-isoquinoline-3-carbonyl)-amino)-acetic acid methyl ester] the “VEGF expression … (FIG. 4A)” value [1] was “increase in VEGF expression”.
For `O=C(O)CNC(=O)c1nc(Cl)c2cc(OCc3ccccc3)ccc2c1O` [Compound L, N-((7-benzyloxy-1-chloro-4-hydroxy-isoquinoline-3-carbonyl)-amino)-acetic acid], the “VEGF expression … (FIG. 4A)” value [1] was “increase in VEGF expression”.
For `COc1cccnc1C(=O)NCC(=O)O` [Compound P, [(3-methoxy-pyridine-2-carbonyl)-amino]-acetic acid], the “decrease in serum level of ALT in the treated group relative to the untreated group” value [4] was 43%, the “decrease in serum level of AP in the treated group relative to the untreated group” value [4] was 65% and the “decrease in serum level of BR in the treated group relative to the untreated group” value [4] was 64%. For the same molecule, the “decrease in serum level of tBA in the treated group relative to the untreated group” value [4] was 65%, the “ALT (serum alanine transaminase)” value [5] was 59.0 ± 29.5 U/L and the “AP (serum alkaline phosphatase)” value [5] was 195 ± 72.7 U/L. The “BR (serum bilirubin)” value [5] was 2.83 ± 2.21 µmol/L, the “BW (body weight)” value [5] was 373 ± 38.9 g and the “tBA (serum total bile acids)” value [5] was 40.8 ± 51.4 µmol/L.
With `COc1cc2cccnc2c2[nH]cc(C(=O)O)c(=O)c12` [Compound Q, 5-methoxy-4-oxo-1,4-dihydro-[1,10]phenanthroline-3-carboxylic acid] the “VEGF expression … (FIG. 4A)” value [1] was “increase in VEGF expression”.
